Reference: US20150297552A1, “FERTILITY ENHANCING AGENT” (OCTAPAM LIMITED, priority 2012, published 2015)

What was measured:
Wistar rats [1] = experiment: Reproductive function study, agents administered to male rats and female rats separately (Example 2); assay type: in vivo, rat; conditions: for Amount of embryonate female rats: of 20 added females; for Amount of babies delivered by 1 female / Amount of dead fetuses / Amount of gestation female rats / Amount of implantation sites / Amount of resorptions / Amount of viable fetuses / Amount of yellow bodies / Carniocaudal size of fetus / Fertility index / Fetus body weight / Gestation index / Post-implantation loss / Postnatal loss after 3 weeks / Pre-implantation loss / Weight of newborn baby rats / Dynamics of infant body weight, 1st week / Dynamics of infant body weight, 2nd week / Dynamics of infant body weight, 3rd week / Dynamics of infant body weight, 4th week: 0.35 mg/kg
Experimental: 180 male and female Wistar rats were studied in the experiments (initial body weight—180-200 g). The prototype agent and the agent of present invention in the clathrate complex form were administered intragastrically in amount of 0.35 mg/kg. Female group of 120 animals was broken into two subgroups: control group (80 animals) and study group (40 animals). The prototype agent and the agent of present invention in the clathrate complex form were intragastrically administered to female rats of study group once a day during 2 weeks (3-4 estrous cycles). Male group of 60 animals was broken into two subgroups: control group (40 animals) and study group (20 animals). The prototype agent and the agent of present invention in the clathrate complex form were intragastrically administered to male rats of study group daily during 10 weeks (2-3 cycles of spermatozoa maturation). Corresponding amounts of placebo comprised of vegetable oil or β-cyclodextrin were administered to animals of the control group with the same intervals. The placebo was chosen based on the fact that the prototype agent is an oil-soluble compound and the agent of present invention in the clathrate complex form is a water soluble compound. The drugs were administered once daily (at 10 a.m.).
After administering the medication 6 groups of animals were formed: • the first (vegetable oil)—20 control female rats were housed together with 10 control male rats; • the second (β-cyclodextrin)—20 control female rats were housed together with 10 control male rats; • the third (the prototype, 0.35 mg/kg)—20 study female rats were housed together with 10 control male rats; • the fourth (the prototype, 0.35 mg/kg)—20 control female rats were housed together with 10 study male rats; • the fifth (the agent of present invention in the clathrate complex form 0.35 mg/kg)—20 study female rats were housed together with 10 control male rats; • the sixth (the agent of present invention in the clathrate complex form 0.35 mg/kg)—20 control female rats were housed together with 10 study male rats.
A pre- and post-implantation fetal death indexes, fertility index and gestation index were calculated according to equations cited in Example 1.

[2] = Solubility character of the agents; assay type: physicochemical
Wistar rats [3] = experiment: Reproductive function study, agents administered to male rats (Example 1); assay type: in vivo, rat; conditions: for Amount of gestation female rats / Fertility index / Gestation index / Amount of embryonate female rats: administered to male rats; for Amount of embryonate female rats: of 20 females housed with males; for Amount of babies delivered by 1 female / Post-implantation loss / Postnatal loss after 3 weeks / Pre-implantation loss / Weight of newborn baby rats / Dynamics of babies' body weight, 1st week / Dynamics of babies' body weight, 2nd week / Dynamics of babies' body weight, 3rd week / Dynamics of babies' body weight, 4th week / Craniocaudal size of fetus / Fetus weight / Amount of dead fetuses / Amount of implantation sites / Amount of resorptions / Amount of viable fetuses / Amount of yellow bodies: 10 weeks; for Craniocaudal size of fetus / Fetus weight: 20th day of gestation; for Amount of dead fetuses / Amount of implantation sites / Amount of resorptions / Amount of viable fetuses / Amount of yellow bodies: females sacrificed on 20th day of gestation
Experimental: 180 male and female Wistar rats were tested in the 110 experiments (initial body weight—180-200 g).
Group of 60 male rats was grouped into 6 subgroups each including 10 animals. Each group was treated as follows: group 1—vegetable oil, group 2—β-cyclodextrin, group 3—the agent of present invention, 0.35 mg/kg (the prototype agent), group 4—medication, 0.70 mg/kg (the prototype agent), group 5—the agent of present invention in a clathrate complex, 0.35 mg/kg, group 6—the agent of present invention in a clathrate complex, 0.70 mg/kg.
Male rats of the study subgroups were intragastrically given the above mentioned doses of the prototype agent and the agent of present invention in the clathrate complex form daily during 10 weeks (2-3 cycles of spermatozoa maturation). At the same time, animals of control groups were treated with corresponding amounts of placebo consisting of the vegetable oil or β-cyclodextrin. The placebo was chosen based on the fact that the prototype agent is an oil-soluble compound and the agent of present invention in the clathrate complex form is a water soluble compound. The drugs were administered once daily (at 10 a.m.).
After completion of dosing 6 groups of animals were formed: • the first (vegetable oil)—20 control female rats were housed together with 10 control male rats; the second (β-cyclodextrin)—20 control female rats were housed together with 10 control male rats; the third (the prototype agent, 0.35 mg/kg)—20 study female rats housed together with 10 control male rats; • the fourth (the prototype, 0.70 mg/kg)—20 control female rats were housed together with 10 study male rats; • the fifth (the agent of present invention in the clathrate complex form 0.35 mg/kg)—20 study female rats were housed together with 10 control male rats; • the sixth (the agent of present invention in the clathrate complex form 0.70 mg/kg)—20 control female rats were housed together with 10 study male rats.
During two estrous cycles, vaginal smear preparations were analyzed. Proestrus, estrus and metaestrum phases were detected. Presence of spermatozoa in vaginal smear preparations was registered as the first day of gestation. After 10 days, two subgroups of gestation female rats were formed from female rats in each of […] groups. Female rats of the first subgroups were sacrificed on 20th day of gestation. Amount of fetuses, resorption, implantation sites in the uterine cavity and yellow bodies of ovary were counted. Based on the obtained data, pre-implantation and post-implantation fetal death indexes were calculated according to the following equation: […]
where N1—amount of yellow bodies, N2—amount of implantation sites
where N1—amount of implantation sites N2—amount of viable fetuses.
Further, fertility index (ratio between the amount of female rats housed together with male rats to the amount of female rats having spermatozoa in vaginal smear preparations) and gestation index (ratio between the amount of female rats having spermatozoa in vaginal smear preparations to the amount of animals with full-term pregnancy):
where N1—amount of embryonate female rats N2—amount female rats housed together with male rats
where N1—amount of gestation female rats N2—amount of embryonate female rats Pathological changes (subcutaneous hematomas and edemas, developmental defects of skeletal system and eye globes) were registered.
The second groups of gestation female rats were allowed to parturiate under monitoring. Animals were weighed weekly and weight gain was registered. Parturition date, amount of babies in the brood and weight of babies were recorded. On 21st day after parturition, the survival rate and total and median weight of babies were measured.

[4] = administered to female rats, 2 weeks
[5] = administered to male rats, 10 weeks
[6] = 0.35 mg/kg intragastrically daily during 10 weeks
[7] = 0.70 mg/kg intragastrically daily during 10 weeks

SMILES: c1ccc(C2C3=C(CCCC3)[Se]C3=C2CCCC3)cc1 [Prototype agent, 9-phenyl-sym-octahydroselenoxanthene]
- Amount of embryonate female rats (Wistar rats [1]; administered to female rats, 0.35 mg/kg intragastrically once a day during 2 weeks): 16
- Amount of babies delivered by 1 female (Wistar rats [1]; [4]): 8.6 ± 0.9
- Amount of dead fetuses (Wistar rats [1]; [4]): 0
- Amount of gestation female rats (Wistar rats [1]; [4]): 14
- Amount of implantation sites (Wistar rats [1]; [4]): 9.9 ± 0.6
- Amount of resorptions (Wistar rats [1]; [4]): 0.4 ± 0.2
- Amount of viable fetuses (Wistar rats [1]; [4]): 9.2 ± 1.1
- Amount of yellow bodies (Wistar rats [1]; [4]): 10.7 ± 0.7
- Carniocaudal size of fetus (Wistar rats [1]; [4]): 35 ± 2 mm
- Fertility index (Wistar rats [1]; [4]): 80%
- Fetus body weight (Wistar rats [1]; [4]): 3.4 ± 0.2 g
- Gestation index (Wistar rats [1]; [4]): 88%
- Post-implantation loss (Wistar rats [1]; [4]): 7.1%
- Postnatal loss after 3 weeks (Wistar rats [1]; [4]): 2.5%
- Pre-implantation loss (Wistar rats [1]; [4]): 7.5%
- Weight of newborn baby rats (Wistar rats [1]; [4]): 6.2 ± 0.9 g
- Dynamics of infant body weight, 1st week (Wistar rats [1]; [4]): 18.8 ± 1.2 g
- Dynamics of infant body weight, 2nd week (Wistar rats [1]; [4]): 26.3 ± 1.5 g
- Dynamics of infant body weight, 3rd week (Wistar rats [1]; [4]): 47.4 ± 2.0 g
- Dynamics of infant body weight, 4th week (Wistar rats [1]; [4]): 61.5 ± 2.8 g
- Amount of embryonate female rats (Wistar rats [1]; administered to male rats, 0.35 mg/kg intragastrically daily during 10 weeks): 17
- Amount of babies delivered by 1 female (Wistar rats [1]; [5]): 8.7 ± 0.8
- Amount of dead fetuses (Wistar rats [1]; [5]): 0
- Amount of gestation female rats (Wistar rats [1]; [5]): 15
- Amount of implantation sites (Wistar rats [1]; [5]): 10.1 ± 1.1
- Amount of resorptions (Wistar rats [1]; [5]): 0.4 ± 0.2
- Amount of viable fetuses (Wistar rats [1]; [5]): 9.4 ± 1.0
- Amount of yellow bodies (Wistar rats [1]; [5]): 10.8 ± 0.8
- Carniocaudal size of fetus (Wistar rats [1]; [5]): 35 ± 1 mm
- Fertility index (Wistar rats [1]; [5]): 85%
- Fetus body weight (Wistar rats [1]; [5]): 3.5 ± 0.2 g
- Gestation index (Wistar rats [1]; [5]): 88%
- Post-implantation loss (Wistar rats [1]; [5]): 6.9%
- Postnatal loss after 3 weeks (Wistar rats [1]; [5]): 2.6%
- Pre-implantation loss (Wistar rats [1]; [5]): 6.5%
- Weight of newborn baby rats (Wistar rats [1]; [5]): 6.4 ± 1.2 g
- Dynamics of infant body weight, 1st week (Wistar rats [1]; [5]): 20.1 ± 0.9 g
- Dynamics of infant body weight, 2nd week (Wistar rats [1]; [5]): 27.2 ± 1.5 g
- Dynamics of infant body weight, 3rd week (Wistar rats [1]; [5]): 45.9 ± 1.9 g
- Dynamics of infant body weight, 4th week (Wistar rats [1]; [5]): 61.9 ± 2.6 g
- Solubility (oil-soluble / water soluble) [2]: oil-soluble
- Amount of gestation female rats (Wistar rats [3]; [6]): 13
- Fertility index (Wistar rats [3]; [6]): 80%
- Gestation index (Wistar rats [3]; [6]): 81%
- Amount of embryonate female rats (Wistar rats [3]; [6]): 16
- Amount of gestation female rats (Wistar rats [3]; [7]): 14
- Fertility index (Wistar rats [3]; [7]): 85%
- Gestation index (Wistar rats [3]; [7]): 82%
- Amount of embryonate female rats (Wistar rats [3]; [7]): 17
- Amount of babies delivered by 1 female (Wistar rats [3]; male rats 0.35 mg/kg): 9.2 ± 1.1
- Post-implantation loss (Wistar rats [3]; male rats 0.35 mg/kg): 5.3%
- Postnatal loss after 3 weeks (Wistar rats [3]; male rats 0.35 mg/kg): 2.8%
- Pre-implantation loss (Wistar rats [3]; male rats 0.35 mg/kg): 5.1%
- Weight of newborn baby rats (Wistar rats [3]; male rats 0.35 mg/kg): 5.7 ± 0.9 g
- Dynamics of babies' body weight, 1st week (Wistar rats [3]; male rats 0.35 mg/kg): 19.2 ± 1.1 g
- Dynamics of babies' body weight, 2nd week (Wistar rats [3]; male rats 0.35 mg/kg): 25.2 ± 1.6 g
- Dynamics of babies' body weight, 3rd week (Wistar rats [3]; male rats 0.35 mg/kg): 45.7 ± 1.2 g
- Dynamics of babies' body weight, 4th week (Wistar rats [3]; male rats 0.35 mg/kg): 60.4 ± 1.9 g
- Craniocaudal size of fetus (Wistar rats [3]; male rats 0.35 mg/kg): 33 ± 2 mm
- Fetus weight (Wistar rats [3]; male rats 0.35 mg/kg): 3.3 ± 0.2 g
- Amount of dead fetuses (Wistar rats [3]; male rats 0.35 mg/kg): 0
- Amount of implantation sites (Wistar rats [3]; male rats 0.35 mg/kg): 13.1 ± 1.0
- Amount of resorptions (Wistar rats [3]; male rats 0.35 mg/kg): 0.6 ± 0.2
- Amount of viable fetuses (Wistar rats [3]; male rats 0.35 mg/kg): 12.4 ± 0.8
- Amount of yellow bodies (Wistar rats [3]; male rats 0.35 mg/kg): 13.8 ± 1.2
- Amount of babies delivered by 1 female (Wistar rats [3]; male rats 0.70 mg/kg): 9.0 ± 1.2
- Post-implantation loss (Wistar rats [3]; male rats 0.70 mg/kg): 4.8%
- Postnatal loss after 3 weeks (Wistar rats [3]; male rats 0.70 mg/kg): 2.8%
- Pre-implantation loss (Wistar rats [3]; male rats 0.70 mg/kg): 5.3%
- Weight of newborn baby rats (Wistar rats [3]; male rats 0.70 mg/kg): 5.8 ± 1.0 g
- Dynamics of babies' body weight, 1st week (Wistar rats [3]; male rats 0.70 mg/kg): 19.1 ± 0.8 g
- Dynamics of babies' body weight, 2nd week (Wistar rats [3]; male rats 0.70 mg/kg): 25.3 ± 1.2 g
- Dynamics of babies' body weight, 3rd week (Wistar rats [3]; male rats 0.70 mg/kg): 44.7 ± 1.5 g
- Dynamics of babies' body weight, 4th week (Wistar rats [3]; male rats 0.70 mg/kg): 59.8 ± 2.4 g
- Craniocaudal size of fetus (Wistar rats [3]; male rats 0.70 mg/kg): 33 ± 1 mm
- Fetus weight (Wistar rats [3]; male rats 0.70 mg/kg): 3.3 ± 0.1 g
- Amount of dead fetuses (Wistar rats [3]; male rats 0.70 mg/kg): 0
- Amount of implantation sites (Wistar rats [3]; male rats 0.70 mg/kg): 12.5 ± 1.0
- Amount of resorptions (Wistar rats [3]; male rats 0.70 mg/kg): 0.5 ± 0.2
- Amount of viable fetuses (Wistar rats [3]; male rats 0.70 mg/kg): 11.9 ± 0.7
- Amount of yellow bodies (Wistar rats [3]; male rats 0.70 mg/kg): 13.2 ± 0.9
